Measured values taken from patent US5041567A, “Antibacterial monic acid derivatives” (Beecham Group plc, priority 1982, dated 1991).
≈ marks a conversion by molar mass, not a printed value. Read-outs that look alike come from different tables or passages of the source.

Key:
[1] = system: M. suipneumoniae ATCC 25095; test: MIC against mycoplasma in vitro; assay type: cell-based; conditions: Mesomycoplasma hyopneumoniae, ATCC25095, 144 h
[2] = system: M. suipneumoniae J2206/183^b; test: MIC against mycoplasma in vitro; assay type: cell-based; conditions: Mesomycoplasma hyopneumoniae, 144 h
[3] = system: Bacillus subtilis 6633; test: MIC against human bacteria in vitro; assay type: cell-based; conditions: Bacillus subtilis 6633; 5% chocolated horse blood agar, 18 hours; read-out: MIC
[4] = system: Past. haemolytica PA5; test: MIC against veterinary bacteria in vitro; conditions: Mannheimia haemolytica, PA5, 18 h
Protocol: (§1) The activity of the compounds of the Examples against various veterinarily important bacteria, was assayed in vitro using two-fold serial dilutions in Diagnostic Sensitivity Test Agar inoculated with 10^4 organisms.

[5] = system: Staph. aureus Oxford; test: MIC against human bacteria in vitro; assay type: cell-based; conditions: Staphylococcus aureus; Staph. aureus Oxford; 5% chocolated horse blood agar, 18 hours; read-out: MIC
[6] = system: Sarcina lutea 8340; test: MIC against human bacteria in vitro; assay type: cell-based; conditions: Micrococcus luteus; Sarcina lutea 8340; 5% chocolated horse blood agar, 18 hours; read-out: MIC
[7] = system: Staph. aureus Oxford; test: MIC against veterinary bacteria in vitro; conditions: Staphylococcus aureus, 18 h
Protocol: as §1

[8] = system: M. suipneumoniae JF 435; test: MIC against mycoplasma in vitro; assay type: cell-based; conditions: Mesomycoplasma hyopneumoniae, JF435, 144 h
[9] = system: M. hyorhinis ATCC 23234; test: MIC against mycoplasma in vitro; assay type: cell-based; conditions: Mesomycoplasma hyorhinis, ATCC23234, 144 h
[10] = system: Staph. aureus B4 (pen. resistant); test: MIC against veterinary bacteria in vitro; conditions: Staphylococcus aureus, 18 h
Protocol: as §1

[11] = system: Staph. aureus W2827; test: MIC against human bacteria in vitro; assay type: cell-based; conditions: Staphylococcus aureus; Staph. aureus W2827; 5% chocolated horse blood agar, 18 hours; read-out: MIC
[12] = system: E. coli ESS; test: MIC against human bacteria in vitro; assay type: cell-based; conditions: Escherichia coli; E. coli ESS; 5% chocolated horse blood agar, 18 hours; read-out: MIC
[13] = system: Haemophilus influenzae Wy21; test: MIC against human bacteria in vitro; assay type: cell-based; conditions: Haemophilus influenzae Wy21; 5% chocolated horse blood agar, 18 hours; read-out: MIC
[14] = system: M. suipneumoniae LABER; test: MIC against mycoplasma in vitro; assay type: cell-based; conditions: Mesomycoplasma hyopneumoniae, 144 h; M. suipneumoniae LABER; 6 days, 37° C.; read-out: MIC
[15] = system: Corynebacterium pyogenes CY1; test: MIC against veterinary bacteria in vitro; conditions: CY1, 18 h
Protocol: as §1

[16] = system: Past. multocida PA2; test: MIC against veterinary bacteria in vitro; conditions: Pasteurella multocida, PA2, 18 h
Protocol: as §1

[17] = system: Strep. agalactiae SPA1; test: MIC against veterinary bacteria in vitro; conditions: Streptococcus agalactiae, SPA1, 18 h
Protocol: as §1

[18] = system: M. suipneumoniae NCTC 10110; test: MIC against mycoplasma in vitro; assay type: cell-based; conditions: Mesomycoplasma hyopneumoniae, NCTC10110, 144 h
[19] = system: Bord. bronchiseptica B08; test: MIC against veterinary bacteria in vitro; conditions: Bordetella bronchiseptica, B08, 18 h
Protocol: as §1

[20] = system: Strep. suis (group D) SPS11; test: MIC against veterinary bacteria in vitro; conditions: Streptococcus suis, 18 h
Protocol: as §1

[21] = system: M. dispar NCTC 10125; test: MIC against mycoplasma in vitro; assay type: cell-based; conditions: 144 h
[22] = system: M. hyosynoviae ATCC 25591; test: MIC against mycoplasma in vitro; assay type: cell-based; conditions: 144 h
[23] = system: M. pneumoniae ATCC 15492; test: MIC against mycoplasma in vitro; assay type: cell-based; conditions: Mycoplasmoides pneumoniae, ATCC15492, 144 h
[24] = system: M. hyorhinis ATCC 25021; test: MIC against mycoplasma in vitro; assay type: cell-based; conditions: Mesomycoplasma hyorhinis, ATCC25021, 144 h; M. hyorhinis ATCC 25021; 6 days, 37° C.; read-out: MIC
[25] = system: Corynebacterium xerosis 9755; test: MIC against human bacteria in vitro; assay type: cell-based; conditions: Corynebacterium xerosis 9755; 5% chocolated horse blood agar, 18 hours; read-out: MIC
[26] = system: Pasteurella multocida 1633; test: MIC against human bacteria in vitro; assay type: cell-based; conditions: Pasteurella multocida 1633; 5% chocolated horse blood agar, 18 hours; read-out: MIC
[27] = system: Strep. agalactiae 2788-B; test: MIC against human bacteria in vitro; assay type: cell-based; conditions: Streptococcus agalactiae; Strep. agalactiae 2788-B; 5% chocolated horse blood agar, 18 hours; read-out: MIC
[28] = system: Past. multocida PA1; test: MIC against veterinary bacteria in vitro; conditions: Pasteurella multocida, PA1, 18 h
Protocol: as §1

[29] = system: M. suipneumoniae HK(2); test: MIC against mycoplasma in vitro; assay type: cell-based; conditions: Mesomycoplasma hyopneumoniae, 144 h
[30] = system: M. suipneumoniae UCD 1; test: MIC against mycoplasma in vitro; assay type: cell-based; conditions: Mesomycoplasma hyopneumoniae, UCD1, 144 h
[31] = system: S. dublin S7; test: MIC against veterinary bacteria in vitro; conditions: Salmonella enterica, S7, 18 h
Protocol: as §1

[32] = system: Staph. aureus Russell; test: MIC against human bacteria in vitro; assay type: cell-based; conditions: Staphylococcus aureus; Staph. aureus Russell; 5% chocolated horse blood agar, 18 hours; read-out: MIC
[33] = system: M. suipneumoniae PW/C/210; test: MIC against mycoplasma in vitro; assay type: cell-based; conditions: Mesomycoplasma hyopneumoniae, 144 h; M. suipneumoniae PW/C/210; 6 days, 37° C.; read-out: MIC
[34] = system: Erysipelothrix rhusiopathiae NCTC 8163; test: MIC against veterinary bacteria in vitro; conditions: Erysipelothrix rhusiopathiae, NCTC8163, 18 h
Protocol: as §1

[35] = M. dispar NCTC 10125, 6 days, 37° C., read-out: MIC
[36] = M. pneumoniae ATCC 15492, 6 days, 37° C., read-out: MIC
[37] = M. suipneumoniae ATCC 25095, 6 days, 37° C., read-out: MIC
[38] = M. hyorhinis ATCC 23234, 6 days, 37° C., read-out: MIC

Row | SMILES | MIC [3] [µg/mL] | MIC [5] [µg/mL] | MIC [6] [µg/mL] | MIC [7] [µg/mL] | MIC [10] [µg/mL] | MIC [11] [µg/mL] | MIC [12] [µg/mL] | MIC [13] [µg/mL] | MIC [14] [µg/mL] | MIC [15] [µg/mL] | MIC [16] [µg/mL] | MIC [17] [µg/mL] | MIC [19] [µg/mL] | MIC [20] [µg/mL] | MIC [22] [µg/mL] | MIC [24] [µg/mL] | MIC [25] [µg/mL] | MIC [26] [µg/mL] | MIC [27] [µg/mL] | MIC [28] [µg/mL] | other results
1 | CSc1cccc(-c2cnc(/C=C(\C)C[C@@H]3OC[C@H](C[C@@H]4O[C@H]4[C@@H](C)[C@H](C)O)[C@@H](O)[C@H]3O)o2)c1 [Example 22, 5-m-Methylthiophenyl-2-(1-normon-2-yl)oxazole A] | 4 (≈ 8.17 µM) | 4 (≈ 8.17 µM) | > 128 | 2.5 (≈ 5.11 µM) | 1.25 (≈ 2.55 µM) | 16 (≈ 32.7 µM) | 64 (≈ 131 µM) | 4 (≈ 8.17 µM) | 0.5 (≈ 1.02 µM) | > 80 | 10 (≈ 20.4 µM) | 10 (≈ 20.4 µM) | > 80 | 20 (≈ 40.8 µM) | 1 (≈ 2.04 µM) | 0.5 (≈ 1.02 µM) | > 128 | 32 (≈ 65.4 µM) | 16 (≈ 32.7 µM) | 20 (≈ 40.8 µM) | MIC [1]: 1 µg/mL (≈ 2.04 µM); MIC [2]: 1 µg/mL (≈ 2.04 µM); MIC [4]: 80 µg/mL (≈ 163 µM); MIC [8]: 1 µg/mL (≈ 2.04 µM); MIC [9]: 1 µg/mL (≈ 2.04 µM); MIC [18]: 1 µg/mL (≈ 2.04 µM); MIC [21, 35]: 0.5 µg/mL (≈ 1.02 µM); MIC [23, 36]: 5 µg/mL (≈ 10.2 µM); MIC [29]: 1 µg/mL (≈ 2.04 µM); MIC [30]: 1 µg/mL (≈ 2.04 µM); MIC [31]: > 80 µg/mL; MIC [32]: 16 µg/mL (≈ 32.7 µM); MIC [33]: 0.5 µg/mL (≈ 1.02 µM); MIC [34]: 80 µg/mL (≈ 163 µM)
2 | C/C(=C\c1ncc(-c2cccc(S(C)(=O)=O)c2)o1)C[C@@H]1OC[C@H](C[C@@H]2O[C@H]2[C@@H](C)[C@H](C)O)[C@@H](O)[C@H]1O [Example 23, 5-m-Methylsulphonylphenyl-2-(1-normon-2-yl) oxazole A] | 2 (≈ 3.83 µM) | 4 (≈ 7.67 µM) | > 128 | 10 (≈ 19.2 µM) | 5 (≈ 9.59 µM) | 16 (≈ 30.7 µM) | 4 (≈ 7.67 µM) | 1 (≈ 1.92 µM) | 0.5 (≈ 0.959 µM) | > 80 | 2.5 (≈ 4.79 µM) | 2.5 (≈ 4.79 µM) | > 80 | 10 (≈ 19.2 µM) | 1 (≈ 1.92 µM) | 0.5 (≈ 0.959 µM) | > 128 | 2 (≈ 3.83 µM) | 2 (≈ 3.83 µM) | 5 (≈ 9.59 µM) | MIC [1, 37]: 0.5 µg/mL (≈ 0.959 µM); MIC [2]: 1 µg/mL (≈ 1.92 µM); MIC [4]: 80 µg/mL (≈ 153 µM); MIC [8]: 1 µg/mL (≈ 1.92 µM); MIC [9, 38]: 0.5 µg/mL (≈ 0.959 µM); MIC [18]: 1 µg/mL (≈ 1.92 µM); MIC [21, 35]: 0.5 µg/mL (≈ 0.959 µM); MIC [23]: 1 µg/mL (≈ 1.92 µM); MIC [29]: 1 µg/mL (≈ 1.92 µM); MIC [30]: 1 µg/mL (≈ 1.92 µM); MIC [31]: > 80 µg/mL; MIC [32]: 16 µg/mL (≈ 30.7 µM); MIC [33]: 0.5 µg/mL (≈ 0.959 µM); MIC [34]: > 80 µg/mL
3 | C/C(=C\c1ncc(Cc2ccccc2)o1)C[C@@H]1OC[C@H](C[C@@H]2O[C@H]2[C@@H](C)[C@H](C)O)[C@@H](O)[C@H]1O [Example 27, 5-Benzyl-2-(1-normon-2-yl)oxazole A] | 4 (≈ 8.74 µM) | 8 (≈ 17.5 µM) | > 64 | 10 (≈ 21.9 µM) | 2.5 (≈ 5.46 µM) | 16 (≈ 35 µM) | 16 (≈ 35 µM) | 2 (≈ 4.37 µM) | 5 (≈ 10.9 µM) | > 80 | 5 (≈ 10.9 µM) | 20 (≈ 43.7 µM) | > 80 | > 80 | 2.5 (≈ 5.46 µM) | 5 (≈ 10.9 µM) | > 64 | 32 (≈ 69.9 µM) | 16 (≈ 35 µM) | 20 (≈ 43.7 µM) | MIC [1, 37]: 5 µg/mL (≈ 10.9 µM); MIC ([2]; M. suipneumoniae J2206/183^b, 6 days, 37° C., read-out: MIC): 10 µg/mL (≈ 21.9 µM); MIC ([8]; M. suipneumoniae JF 435, 6 days, 37° C., read-out: MIC): 10 µg/mL (≈ 21.9 µM); MIC [9, 38]: 10 µg/mL (≈ 21.9 µM); MIC ([18]; M. suipneumoniae NCTC 10110, 6 days, 37° C., read-out: MIC): 10 µg/mL (≈ 21.9 µM); MIC [21]: 2.5 µg/mL (≈ 5.46 µM); MIC [23, 36]: 10 µg/mL (≈ 21.9 µM); MIC ([29]; M. suipneumoniae HK(2), 6 days, 37° C., read-out: MIC): 10 µg/mL (≈ 21.9 µM); MIC ([30]; M. suipneumoniae UCD 1, 6 days, 37° C., read-out: MIC): 10 µg/mL (≈ 21.9 µM); MIC [31]: > 80 µg/mL; MIC [32]: 16 µg/mL (≈ 35 µM); MIC [33]: 5 µg/mL (≈ 10.9 µM); MIC [34]: > 80 µg/mL
